# Data from the supplement of paper PMC10307832.
# Legend:
# Assay in all cases: relative viability (nuclei count vs DMSO), 5 days (fraction); higher = more cells survive
# CAP-232 + Lapatinib = compound: C[C@H]([C@@H](C(=O)N)NC(=O)[C@@H]1CSSC[C@@H](C(=O)N[C@H](C(=O)N[C@@H](C(=O)N[C@H](C(=O)N1)CCCCN)CC2=CNC3=CC=CC=C32)CC4=CC=C(C=C4)O)NC(=O)[C@@H](CC5=CC=CC=C5)N)O [CAP-232] + CS(=O)(=O)CCNCc1ccc(-c2ccc3ncnc(Nc4ccc(OCc5cccc(F)c5)c(Cl)c4)c3c2)o1 [Lapatinib] (partner 2 µM)
# Procedure, shortened: (§1)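 Cells from lung cancer lines were seeded into 1536-well plates and, one day later, dosed by pin tool. Treatments were either a single drug or a fixed dose of an anchor drug with five library-drug doses (not always all listed) in √10 steps. After 5 days, nuclei were stained in a one-step fixation (final 0.05% Triton X-100, 1% formaldehyde, 1 ug/ml Hoechst) and counted on 4× images, and relative viability is the treated-to-vehicle nuclei ratio, as the median of duplicate plates.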
# CAP-232 + Trametinib = compound: C[C@H]([C@@H](C(=O)N)NC(=O)[C@@H]1CSSC[C@@H](C(=O)N[C@H](C(=O)N[C@@H](C(=O)N[C@H](C(=O)N1)CCCCN)CC2=CNC3=CC=CC=C32)CC4=CC=C(C=C4)O)NC(=O)[C@@H](CC5=CC=CC=C5)N)O [CAP-232] + CC(=O)Nc1cccc(-n2c(=O)n(C3CC3)c(=O)c3c(Nc4ccc(I)cc4F)n(C)c(=O)c(C)c32)c1 [Trametinib] (partner 0.02 µM)
# Procedure, shortened: as §1
# CAP-232 + Navitoclax = compound: C[C@H]([C@@H](C(=O)N)NC(=O)[C@@H]1CSSC[C@@H](C(=O)N[C@H](C(=O)N[C@@H](C(=O)N[C@H](C(=O)N1)CCCCN)CC2=CNC3=CC=CC=C32)CC4=CC=C(C=C4)O)NC(=O)[C@@H](CC5=CC=CC=C5)N)O [CAP-232] + CC1(C)CCC(c2ccc(Cl)cc2)=C(CN2CCN(c3ccc(C(=O)NS(=O)(=O)c4ccc(N[C@H](CCN5CCOCC5)CSc5ccccc5)c(S(=O)(=O)C(F)(F)F)c4)cc3)CC2)C1 [Navitoclax] (partner 0.5 µM)
# Procedure, shortened: as §1
# CAP-232 + Dasatinib = compound: C[C@H]([C@@H](C(=O)N)NC(=O)[C@@H]1CSSC[C@@H](C(=O)N[C@H](C(=O)N[C@@H](C(=O)N[C@H](C(=O)N1)CCCCN)CC2=CNC3=CC=CC=C32)CC4=CC=C(C=C4)O)NC(=O)[C@@H](CC5=CC=CC=C5)N)O [CAP-232] + Cc1nc(Nc2ncc(C(=O)Nc3c(C)cccc3Cl)s2)cc(N2CCN(CCO)CC2)n1 [Dasatinib] (partner 0.075 µM)
# Procedure, shortened: as §1
# CAP-232 + Foretinib = compound: C[C@H]([C@@H](C(=O)N)NC(=O)[C@@H]1CSSC[C@@H](C(=O)N[C@H](C(=O)N[C@@H](C(=O)N[C@H](C(=O)N1)CCCCN)CC2=CNC3=CC=CC=C32)CC4=CC=C(C=C4)O)NC(=O)[C@@H](CC5=CC=CC=C5)N)O [CAP-232] + COc1cc2c(Oc3ccc(NC(=O)C4(C(=O)Nc5ccc(F)cc5)CC4)cc3F)ccnc2cc1OCCCN1CCOCC1 [Foretinib] (partner 0.25 µM)
# Procedure, shortened: as §1
Cell Line,relative viability (CAP-232 + Lapatinib; first compound 0.4 µM),relative viability (CAP-232 + Lapatinib; first compound 1.265 µM),relative viability (CAP-232 + Lapatinib; first compound 4 µM),relative viability (CAP-232 + Lapatinib; first compound 12.65 µM),relative viability (CAP-232 + Trametinib; first compound 0.4 µM),relative viability (CAP-232 + Trametinib; first compound 1.265 µM),relative viability (CAP-232 + Trametinib; first compound 4 µM),relative viability (CAP-232 + Trametinib; first compound 12.65 µM),relative viability (CAP-232 + Navitoclax; first compound 0.4 µM),relative viability (CAP-232 + Navitoclax; first compound 1.265 µM),relative viability (CAP-232 + Navitoclax; first compound 4 µM),relative viability (CAP-232 + Navitoclax; first compound 12.65 µM),relative viability (CAP-232 + Dasatinib; first compound 0.4 µM),relative viability (CAP-232 + Dasatinib; first compound 1.265 µM),relative viability (CAP-232 + Dasatinib; first compound 4 µM),relative viability (CAP-232 + Dasatinib; first compound 12.65 µM),relative viability (CAP-232 + Foretinib; first compound 0.4 µM),relative viability (CAP-232 + Foretinib; first compound 1.265 µM),relative viability (CAP-232 + Foretinib; first compound 4 µM),relative viability (CAP-232 + Foretinib; first compound 12.65 µM)
201T,1.11,0.98,1.04,1.04,0.707,0.698,0.729,0.677,1.23,1.19,1.12,1.22,0.536,0.549,0.614,0.556,1.17,1.14,1.03,0.864
A549,1.1,1,1.05,0.42,,,,,1.33,1.19,1.25,0.482,,,,,1.01,0.998,0.935,0.369
A-427,1.09,1.04,1.17,1.09,0.615,0.716,0.795,0.684,0.926,0.996,0.941,0.965,0.646,0.467,0.679,0.76,0.852,1.19,1.05,1.1
ABC-1,1,1.12,0.887,1.26,,,,,,,,,0.582,0.562,0.53,0.448,0.772,0.876,1.35,0.677
BEN,0.776,0.661,0.583,0.575,1.15,0.987,0.997,0.914,0.0584,0.0704,0.0685,0.0473,0.39,0.261,0.264,0.424,0.776,0.624,0.595,0.595
CAL-12T,0.528,0.612,0.644,0.736,0.233,0.303,0.394,0.162,1.05,1.21,1.3,0.94,0.32,0.409,0.521,0.138,1.06,1.06,0.927,0.85
COR-L23,1.3,0.961,1.08,0.845,0.455,0.597,0.604,0.281,1.02,1.1,0.977,0.572,0.506,0.575,0.531,0.342,1.02,0.957,1.1,0.851
COR-L 105,0.333,0.376,0.354,0.33,0.371,0.414,0.395,0.377,0.748,0.69,0.796,0.498,0.337,0.352,0.273,0.249,0.955,0.851,1.22,0.572
ChaGo-K-1,,,,,0.867,0.892,1.01,0.93,1.43,0.818,0.973,0.734,0.666,0.611,0.614,0.506,0.954,0.779,0.836,0.912
EKVX,0.211,0.203,0.191,0.171,0.583,0.342,0.268,0.331,1.07,1.07,0.951,0.714,0.457,0.605,0.499,0.509,0.77,0.571,0.768,0.768
EMC-BAC-2,0.951,0.914,0.928,0.917,0.757,0.864,0.859,0.415,1.23,1.25,1.38,0.935,0.36,0.31,0.353,0.28,1.1,0.953,1.01,0.907
EPLC-272H,1.25,0.86,1.04,0.971,0.261,0.258,0.281,0.28,1.37,1.29,1.17,0.964,0.402,0.306,0.321,0.386,0.661,0.644,0.659,0.71
H3255,0.317,0.226,0.219,0.0844,0.608,,0.543,0.436,0.629,0.426,0.556,0.242,0.352,0.353,0.455,0.338,0.849,0.799,0.866,0.854
HARA,0.717,0.613,0.691,0.732,0.323,0.9,0.643,0.506,1.14,1.16,1.13,1.21,0.266,0.256,0.305,0.27,0.983,0.975,0.805,0.824
